PMC5836741 (Journal of medicinal chemistry, 2017)

Key:
hM3 mAChR = hM3 mAChR (Homo sapiens, UniProt P20309); assay: IP-One accumulation assay, CHO cells, M3R; format: cell-based; conditions: read-out: IP accumulation Emax M3R
M3R = M3R (Homo sapiens, UniProt P20309); assay: ERK1/2 phosphorylation; conditions: CHO, read-out: ERK1/2 phosphorylation Emax M3R
M2R [1] = biological target: T1, M2R (Homo sapiens, UniProt P08172); assay: Whole cell radioligand binding, CHO cells, M2R; conditions: M2 vs M1
T1 sequence (P08172 1-466): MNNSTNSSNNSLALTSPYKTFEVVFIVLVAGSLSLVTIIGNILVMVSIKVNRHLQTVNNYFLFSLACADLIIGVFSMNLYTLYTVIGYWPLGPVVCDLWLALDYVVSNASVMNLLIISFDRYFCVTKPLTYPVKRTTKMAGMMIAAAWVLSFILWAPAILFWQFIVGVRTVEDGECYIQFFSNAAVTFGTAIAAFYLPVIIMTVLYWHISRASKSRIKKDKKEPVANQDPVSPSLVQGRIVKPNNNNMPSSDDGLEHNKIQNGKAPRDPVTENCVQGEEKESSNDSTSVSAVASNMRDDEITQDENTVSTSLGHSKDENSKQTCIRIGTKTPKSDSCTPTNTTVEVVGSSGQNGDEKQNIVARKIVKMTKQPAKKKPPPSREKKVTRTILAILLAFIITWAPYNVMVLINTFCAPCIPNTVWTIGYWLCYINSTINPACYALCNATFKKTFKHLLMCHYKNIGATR

M2R [2] = biological target: T1, M2R; assay: β-Arrestin recruitment assay, HEK cells, M2-TEV-tTA; format: cell-based; conditions: versus acetylcholine as reference, against the cAMP assay

Chain of M3R (P20309 whole entry): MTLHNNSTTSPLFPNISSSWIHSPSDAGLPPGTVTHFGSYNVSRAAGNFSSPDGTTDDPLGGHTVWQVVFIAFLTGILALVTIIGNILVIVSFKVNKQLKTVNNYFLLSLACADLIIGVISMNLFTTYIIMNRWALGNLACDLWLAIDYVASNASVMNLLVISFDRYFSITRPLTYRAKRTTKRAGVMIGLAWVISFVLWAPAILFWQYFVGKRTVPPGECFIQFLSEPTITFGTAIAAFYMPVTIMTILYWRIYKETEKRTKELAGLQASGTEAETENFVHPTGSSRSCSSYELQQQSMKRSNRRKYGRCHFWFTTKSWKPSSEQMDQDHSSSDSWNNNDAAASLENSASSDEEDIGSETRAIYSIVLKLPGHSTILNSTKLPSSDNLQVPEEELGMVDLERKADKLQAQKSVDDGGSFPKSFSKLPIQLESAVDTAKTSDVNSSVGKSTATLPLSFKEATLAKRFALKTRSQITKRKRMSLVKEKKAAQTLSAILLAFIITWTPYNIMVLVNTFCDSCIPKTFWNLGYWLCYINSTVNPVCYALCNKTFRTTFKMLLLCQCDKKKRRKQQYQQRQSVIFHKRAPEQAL
Chain of hM3 mAChR (P20309 whole entry): as above

Row | Compound | Emax (hM3 mAChR) [%] | Emax (M3R) [%] | selectivity over M1 receptor (M2R [1]) [fold] | bias toward arrestin (M2R [2]) [fold]
1 | CC(=O)OCC[N+](C)(C)C [acetylcholine] | 100 | 100 | – | –
2 | C[N+](C)(C)CCc1ccc2c(c1)OCC2.O=C[O-] [Compound 28] | – | – | 4 | 20
